Experimental findings from patent US20250066389A1, “HETEROCYCLIC AMIDES AND METHODS OF USING THE SAME” (Rgenta Therapeutics, Inc., priority 2021, published 2025) are described below.

Structures can show the parent of a compound that is named as a salt. Bounds are passed on as bounds.

What is called IC50 is the concentration that inhibits the measured activity by half. A higher IC50 goes with weaker potency in that assay.

One test deals with PMS1. Briefly: Mini-Gene Reporter Assay—PMS1 (firefly luciferase mini-gene reporter transiently transfected into HEK293 cells). The test is classed as cell-based. As to conditions: Homo sapiens; at 5 uM; mini-gene firefly luciferase reporter in HEK293 cells; read-out: PMS1 % Effect at 5 uM. The source says:
Example 76. Mini-Gene Reporter Assay—PMS1
Mini-gene reporter constructs for each target site can be constructed by first PCR amplifying the region-of-interest including the sequence of the alternatively skipped, sequences of the immediate upstream and downstream introns, and sequences of the immediate upstream and downstream exons. Then the 3′ end of the amplified sequence can be ligated to a firefly luciferase reporter gene and cloned into the pcDNA3.1 vector backbone. The final reporter construct can be transiently transfected into HEK293 cells using Lipofectamine 3000 transfection reagents. Compounds that can induce the inclusion of the skipped exon in the reporter construct would increase the reporter firefly luciferase activity.
Test compounds may be diluted in duplicates and dispensed into an assay plate. Transient mini-gene reporter cell line stock is resuspended and dispensed into the assay plate. Assay plates are then centrifuged and incubated. A luciferase reagent (e.g. ONE-Glo firefly luciferase reagent from Promega®) may be added to the assay plate and the luminescence (RLU) signals recorded. EC50 values may be determined by curve fitting in Levenberg-Marquardt algorithm.
In Table D below, A indicates a IC50 (μM)<1 μM, B indicates a IC50 (μM) 1 μM to <10 μM, and C indicates a IC50 (μM) 10 μM to <50 μM. In Table D below, A indicates a >75% Effect at 5 μM μM. B indicates a 50 to <75% Effect at 5 μM μM, and C indicates a <50% Effect at 5 μM.
Regarding `CCOc1cn2nc(C)cc2cc1C(=O)Nc1cnc(N(C)CC2CCCN2)cn1` (stereo not drawn) [Compound 534], the activation at 5 µM lay in the range of 50 to 75%.

In the case of `CCOc1cc2nn(C)cc2cc1C(=O)Nc1cnc(NC[C@H]2CC[C@H](CNC)CC2)nc1` [Compound 400], the activation at 5 µM was less than 50%.

As for `COc1cc2nc(C)cn2cc1C(=O)Nc1ccc(N2CCC3(CCN3)C2)cc1F` (stereo not drawn) [Compound 171, N-(2-fluoro-4-(1,6-diazaspiro[3.4]octan-6-yl)phenyl)-7-methoxy-2-methylimidazo[1,2-a]pyridine-6-carboxamide], the activation at 5 µM was greater than 75%.

For the compound `CCOc1cc2nn(C)cc2cc1C(=O)Nc1cnc(N2CCC(n3ncc4c3CNC4)CC2)nc1` [Compound 414], the activation at 5 µM is less than 50%.

As to `CCOc1cn2nc(C)cc2cc1C(=O)Nc1ccc(C2=CCNCC2)nn1` [Compound 754, 6-ethoxy-2-methyl-N-(6-(1,2,3,6-tetrahydropyridin-4-yl)pyridazin-3-yl)pyrazolo[1,5-a]pyridine-5-carboxamide hydrochloride], the activation at 5 µM was greater than 75%.

Take `CCOc1cn2nc(C)cc2cc1C(=O)Nc1cnc(NCCCC2CCCN2)nc1` (stereo not drawn) [Compound 563]: the activation at 5 µM was less than 50%.

For the compound `CCOc1cn2nc(C)cc2cc1C(=O)Nc1cnc(NC[C@H]2CCCN2)nc1` [Compound 593], the activation at 5 µM was less than 50%.

As to `CCOc1cn2nc(C)cc2cc1C(=O)Nc1ccc(N2CCNCC2)nn1` [Compound 753, 6-ethoxy-2-methyl-N-(6-(piperazin-1-yl)pyridazin-3-yl)pyrazolo[1,5-a]pyridine-5-carboxamide hydrochloride], the activation at 5 µM is greater than 75%.

Turning to `CCOc1cn2nc(C)cc2cc1C(=O)Nc1cnc(N2CCC(N)C2)cn1` (stereo not drawn) [Compound 556], the activation at 5 µM was greater than 75%.

For the compound `Cc1cn2cc(C(=O)Nc3ccc(N4CCNCC4)nc3)ncc2n1` [Compound 103, 2-methyl-N-(6-(piperazin-1-yl)pyridin-3-yl)imidazo[1,2-a]pyrazine-6-carboxamide], the activation at 5 µM is less than 50%.

In the case of `CCOc1cc2nn(C)cc2cc1C(=O)Nc1ccc(N2CCN[C@@H](C)C2)nn1` [Compound 208, (S)-6-ethoxy-2-methyl-N-(6-(3-methylpiperazin-1-yl)pyridazin-3-yl)-2H-indazole-5-carboxamide HCl Salt], the activation at 5 µM was greater than 75%.

On to `CCOc1cn2nc(C)cc2cc1C(=O)Nc1cnc(NC2CNCC2(C)C)cn1` (stereo not drawn) [Compound 500], for which the activation at 5 µM was less than 50%.

Regarding `CCOc1cn2nc(C)cc2cc1C(=O)Nc1cnc(N(C)C[C@@H]2CCCN2)cn1` [Compound 526], the activation at 5 µM was greater than 75%.

As for `CCOc1cn2nc(C)cc2cc1C(=O)Nc1cnc(N2CCCC2CNC)cn1` (stereo not drawn) [Compound 525], the activation at 5 µM lay in the range of 50 to 75%.

As for `CCOc1cc2nc(C)cn2cc1C(=O)Nc1cnc(N(C)C2CCNCC2)nc1` [Compound 649], the activation at 5 µM is 50 to 75%.

As to `CCOc1cn2nc(C)cc2cc1C(=O)Nc1cnc(N2CCNCC2)nc1` [Compound 594], the activation at 5 µM fell in the range of 50 to 75%.

For `CCOc1cc2nc(C)cn2cc1C(=O)Nc1cnc(N[C@@H]2CNC[C@@H]2F)cn1` [Compound 666], the activation at 5 µM is 50 to 75%.

Consider `COCCNC1CCN(c2ccc(NC(=O)c3cn4cc(C)nc4cc3OC)c(F)c2)CC1` [Compound 137, N-(2-fluoro-4-(4-((2-methoxyethyl)amino)piperidin-1-yl)phenyl)-7-methoxy-2-methylimidazo[1,2-a]pyridine-6-carboxamide], for which the activation at 5 µM was 50 to 75%.

`CCOc1cc2nn(C)cc2cc1C(=O)Nc1cnc(N2CCC3(CNCCO3)C2)nc1` (stereo not drawn) [Compound 429]: the activation at 5 µM was less than 50%.

In the case of `COc1cc2nc(C)cn2cc1C(=O)Nc1ccc(N2CC(CO)C3(CNC3)C2)cc1F` (stereo not drawn) [Compound 134, N-(2-fluoro-4-(8-(hydroxymethyl)-2,6-diazaspiro[3.4]octan-6-yl)phenyl)-7-methoxy-2-methylimidazo[1,2-a]pyridine-6-carboxamide], the activation at 5 µM was less than 50%.

As to `CCOc1cc2nn(C)cc2cc1C(=O)Nc1cnc(N2CCCNCC2C)cn1` (stereo not drawn) [Compound 351], the activation at 5 µM was less than 50%.

Take `CCOc1cc2nn(C)cc2cc1C(=O)Nc1ccc(N2CCNCC2)nn1` [Compound 749, 6-ethoxy-2-methyl-N-(6-(piperazin-1-yl)pyridazin-3-yl)-2H-indazole-5-carboxamide hydrochloride]: the activation at 5 µM was greater than 75%.

Still in this test, the particulars now being: Homo sapiens; mini-gene firefly luciferase reporter in HEK293 cells.
In turn, `CCOc1cc2nn(C)cc2cc1C(=O)Nc1ccc(N2CCN3CCC[C@@H]3C2)nn1` [Compound 739, (R)-6-ethoxy-N-(6-(hexahydropyrrolo[1,2-a]pyrazin-2(1H)-yl)pyridazin-3-yl)-2-methyl-2H-indazole-5-carboxamide formate] returned an IC50 of 1000 to 10000 nM.

Compound `CCOc1cc2nn(C)cc2cc1C(=O)Nc1cnc(N2CCN(C)[C@@H](C)C2)cn1` [Compound 743, (S)—N-(5-(3,4-dimethylpiperazin-1-yl)pyrazin-2-yl)-6-ethoxy-2-methyl-2H-indazole-5-carboxamide formate] had a concentration for half-maximal inhibition (IC50) of 1000 to 10000 nM.

`CCOc1cc2nc(C)cn2cc1C(=O)Nc1ccc(N2CCC(CNC)C2)nn1` (stereo not drawn) [Compound 266] displayed an IC50 of less than 1000 nM.

For `COc1cc2nc(C)cn2cc1C(=O)Nc1ccc(N2CCNC(C)C2)cc1F` (stereo not drawn) [Compound 179, N-(2-fluoro-4-(3-methylpiperazin-1-yl)phenyl)-7-methoxy-2-methylimidazo[1,2-a]pyridine-6-carboxamide], the IC50 was less than 1000 nM.

As for `CCOc1cc2nc(C)cn2cc1C(=O)Nc1ccc(N2CCN(C)[C@@H](C)C2)nn1` [Compound 737, (S)—N-(6-(3,4-dimethylpiperazin-1-yl)pyridazin-3-yl)-7-ethoxy-2-methylimidazo[1,2-a]pyridine-6-carboxamide formate], the IC50 was in the range of 1000 to 10000 nM.

On to `CCOc1cc2nn(C)cc2cc1C(=O)Nc1cc(C)c(N2CCN[C@@H](C)C2)nn1` [Compound 222, (S)-6-ethoxy-2-methyl-N-(5-methyl-6-(3-methylpiperazin-1-yl)pyridazin-3-yl)-2H-indazole-5-carboxamide hydrochloride], for which the half-maximal inhibitory concentration (IC50) lay within 1000 to 10000 nM.

In turn, `COc1cc2nn(C)cc2cc1C(=O)Nc1cnc(N2CCNCC2)cn1` [Compound 746, 6-methoxy-2-methyl-N-(5-(piperazin-1-yl)pyrazin-2-yl)-2H-indazole-5-carboxamide formate] had a concentration for half-maximal inhibition (IC50) of 1000 to 10000 nM.

With `CCOc1cc2nc(C)cn2cc1C(=O)Nc1ccc(N2CC[C@@H]3NCCC[C@@H]3C2)nn1` (racemic) [Compound 241], the IC50 fell in the range of 1000 to 10000 nM.

As to `CCOc1cc2nn(C)cc2cc1C(=O)Nc1ccc(N2CCN3CCC[C@H]3C2)nn1` [Compound 738, (S)-6-ethoxy-N-(6-(hexahydropyrrolo[1,2-a]pyrazin-2(1H)-yl)pyridazin-3-yl)-2-methyl-2H-indazole-5-carboxamide], the IC50 was in the range of 1000 to 10000 nM.

For the compound `CCOc1cc2nn(C)cc2cc1C(=O)Nc1ccc(N2CCN[C@@H](C)C2)nn1` [Compound 208, (S)-6-ethoxy-2-methyl-N-(6-(3-methylpiperazin-1-yl)pyridazin-3-yl)-2H-indazole-5-carboxamide HCl Salt], the IC50 was less than 1000 nM.

Compound `CCOc1cn2nc(C)cc2cc1C(=O)Nc1ccc(N2CCN[C@@H](C)C2)nn1` [Compound 215, (S)-6-ethoxy-2-methyl-N-(6-(3-methylpiperazin-1-yl)pyridazin-3-yl)pyrazolo[1,5-a]pyridine-5-carboxamide HCl Salt] yielded a concentration for half-maximal inhibition (IC50) of less than 1000 nM.

The compound `COc1cc2nn(C)cc2cc1C(=O)Nc1cnc(N2CCN[C@@H](C)C2)cn1` [Compound 736, (S)-6-methoxy-2-methyl-N-(5-(3-methylpiperazin-1-yl)pyrazin-2-yl)-2H-indazole-5-carboxamide hydrochloride] displayed a half-inhibitory concentration (IC50) of 1000 to 10000 nM.

The compound `C[C@H]1CN(c2ccc(NC(=O)c3cc4cn(C)nc4cc3OC3CCC3)nn2)CCN1` [Compound 209, (S)-6-cyclobutoxy-2-methyl-N-(6-(3-methylpiperazin-1-yl)pyridazin-3-yl)-2H-indazole-5-carboxamide HCl Salt] registered an IC50 of less than 1000 nM.

`CCOc1cc2nc(C)cn2cc1C(=O)Nc1ccc(N2CCC(C3CCCN3)CC2)nn1` (stereo not drawn) [Compound 263]: the IC50 fell in the range of 1000 to 10000 nM.

With `CCOc1cc2nc(C)cn2cc1C(=O)Nc1ccc(N2CCNCC2)cc1F` [Compound 126, 7-ethoxy-N-(2-fluoro-4-(piperazin-1-yl)phenyl)-2-methylimidazo[1,2-a]pyridine-6-carboxamide], the IC50 is less than 1000 nM.

Turning to `CCNC1CN(c2ccc(NC(=O)c3cn4cc(C)nc4cc3OCC)nn2)C1` [Compound 262], the IC50 lay within 1000 to 10000 nM.

The compound `CCOc1nc2nc(C)cn2cc1C(=O)Nc1cnc(N2CCN[C@@H](C)C2)cn1` [Compound 722, (S)-7-ethoxy-2-methyl-N-(5-(3-methylpiperazin-1-yl)pyrazin-2-yl)imidazo[1,2-a]pyrimidine-6-carboxamide formate] displayed an IC50 of 1000 to 10000 nM.

With `CCOc1cc2nn(C)cc2cc1C(=O)Nc1ccc(C2CCNCC2)nn1` [Compound 728, 6-ethoxy-2-methyl-N-(6-(piperidin-4-yl)pyridazin-3-yl)-2H-indazole-5-carboxamide hydrochloride], the IC50 lay within 1000 to 10000 nM.

Compound `CCOc1cc2nc(C)cn2cc1C(=O)Nc1ccc(N2CC3(CCNCC3)C2)nn1` [Compound 289] displayed an IC50 of 1000 to 10000 nM.

`CCOc1cc2nc(C)cn2cc1C(=O)Nc1ccc(N2CCN(CC3CCNCC3)CC2)nn1` [Compound 259]: the 50% inhibitory concentration (IC50) fell in the range of 1000 to 10000 nM.
